The values below come from BindingDB's records for doi:10.1097/00001813-200302000-00012 (Korea Research Institute of Chemical Technology, 2003).

A short description of data set [1]: TP_TRANSPORTER: drug resistance (paclitaxel) in MES-SA/DX5 cells.
Data set [2] in a line: TP_TRANSPORTER: drug resistance (paclitaxel) in HCT15/CL02 cells.

Consider `COc1ccc(CCN(C)CCC[C@]2(C#N)CCc3c2ccc(OC)c3OC)cc1OC`, for which the IC50 (as a rule, the midpoint of a concentration-inhibition curve) in data set [1] turned out to be 7.65 µM; in data set [2] it was 3.11 µM.

For the compound `COc1ccc(CCN(C)CCC[C@@]2(C#N)CCc3c2ccc(OC)c3OC)cc1OC`, the IC50 was determined as 6.63 µM in data set [1] and 3.04 µM in data set [2].
